According to patent publication US4254109A, “1H-Benz[de]isoquinoline-2(3H)-acetic acid derivatives” (Ayerst, McKenna & Harrison Inc., priority 1979, dated 1981):

Legend:
aldose reductase [1] = target: T1, aldose reductase (Bos taurus, UniProt P16116); experiment: in vitro aldose reductase inhibition (modified Hayman and Kinoshita procedure; enzyme from bovine lens); type: biochemical; details: read-out: Percent Inhibition at Different Molar Concentrations (in vitro); for inhibition at 10 µM: 10^-5 molar; for inhibition at 1 µM: 10^-6 molar; for inhibition at 0.1 µM: 10^-7 molar
T1 construct: preparation of the enzyme from bovine lens; from tissue; host or cells: bovine lens
Description: In the present case the procedure of Hayman and Kinoshita is modified in that the final chromatography step is omitted in the preparation of the enzyme from bovine lens.
The following results were obtained when the compounds of this invention were evaluated in the above in vitro test (the results for 1,3-dioxo-1H-benz[de]isoquinoline-2(3H)-acetic acid, see U.S. Pat. No. 3,821,383 cited hereinbefore, also is included for comparative purposes): […]

aldose reductase [2] = details: cited from earlier work
insulin secretion = details: cited from earlier work
glucagon = details: cited from earlier work

Row | Structure (SMILES) | inhibition at 10 µM (aldose reductase [1]) | inhibition at 1 µM (aldose reductase [1]) | inhibition at 0.1 µM (aldose reductase [1]) | inhibitor of aldose reductase (aldose reductase [2]) | insulin secretion (insulin secretion) | secretion of excessive amounts of glucagon (glucagon)
1 | O=C(O)CN1C(=O)c2cccc3cccc(c23)C1=O [1,3-Dioxo-1H-benz[de]isoquinoline-2(3H)-acetic acid, reference compound] | 74% | 32% | 5% | effective inhibitor of aldose reductase | stimulates insulin secretion | prevents or decreases the secretion of excessive amounts of glucagon
2 | O=C(O)CN1C(=O)c2cccc3c(C(=O)c4ccccc4)ccc(c23)C1=O [Example 1, 6-Benzoyl-1,3-dioxo-1H-benz[de]isoquinoline-2(3H)-acetic acid] | 85% | 65% | 22% |  |  | 

Second part, led by results:

Row | inhibition at 10 µM (aldose reductase [1]) | inhibition at 1 µM (aldose reductase [1]) | inhibition at 0.1 µM (aldose reductase [1]) | Structure (SMILES) | inhibitor of aldose reductase (aldose reductase [2]) | insulin secretion (insulin secretion) | secretion of excessive amounts of glucagon (glucagon)
3 | 86% | 42% | 9% | O=C(O)CN1C(=O)c2cccc3c(Cl)ccc(c23)C1=O [Example 2, 6-Chloro-1,3-dioxo-1H-benz[de]isoquinoline-2(3H)-acetic acid] |  |  | 
4 | 92% | 71% | 22% | O=C(O)CN1C(=O)c2cccc3c(Sc4ccccc4)ccc(c23)C1=O [Example 3, 1,3-Dioxo-6-(phenylthio)-1H-benz[de]isoquinoline-2(3H)-acetic acid] |  |  | 
5 | 91% | 61% | 17% | O=C(O)CN1C(=O)c2cccc3c(Sc4ccccc4C(=O)O)ccc(c23)C1=O [Example 4, 1,3-Dioxo-6-[(2-carboxyphenyl)thio]-1H-benz[de]isoquinoline-2(3H)-acetic acid] |  |  | 
6 | 60% | 33% | 26% | CCCCCCCCCCSc1ccc2c3c(cccc13)C(=O)N(CC(=O)O)C2=O [Example 5, 1,3-Dioxo-6-(decylthio)-1H-benz[de]isoquinoline-2(3H)-acetic acid] |  |  | 
